Test results from US7928139B2 (Amgen Inc., priority 2006, dated 2011).

What follows are compounds tested against HIF PHD2 (Homo sapiens, UniProt Q9GZT9) (assay: PHD2 inhibition assay (TR-FRET, VCB-Eu detection of hydroxylated P564-HIF1α peptide)). Details: 2 nM PHD2, 100 nM P564-HIF1α peptide, 0.25 μM 2-oxoglutarate, 100 μM FeCl2, 2 mM ascorbic acid.
Format: biochemical
In short: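 Human PHD2 (2 nM final) preincubated 1 h at room temperature with compound and 100 μM FeCl2 in pH 6 MES buffer, 5% DMSO final. Reaction with 100 nM biotinylated P564-HIF1α peptide, 2 mM ascorbate and 0.25 μM 2-oxoglutarate for 1 h, stopped with succinate. Hydroxylation read by TR-FRET (VCB-Eu/streptavidin-APC, 655/615 nm); IC50 from 4-parameter fit of percent of control.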

Sequence of HIF PHD2 (Q9GZT9 whole entry): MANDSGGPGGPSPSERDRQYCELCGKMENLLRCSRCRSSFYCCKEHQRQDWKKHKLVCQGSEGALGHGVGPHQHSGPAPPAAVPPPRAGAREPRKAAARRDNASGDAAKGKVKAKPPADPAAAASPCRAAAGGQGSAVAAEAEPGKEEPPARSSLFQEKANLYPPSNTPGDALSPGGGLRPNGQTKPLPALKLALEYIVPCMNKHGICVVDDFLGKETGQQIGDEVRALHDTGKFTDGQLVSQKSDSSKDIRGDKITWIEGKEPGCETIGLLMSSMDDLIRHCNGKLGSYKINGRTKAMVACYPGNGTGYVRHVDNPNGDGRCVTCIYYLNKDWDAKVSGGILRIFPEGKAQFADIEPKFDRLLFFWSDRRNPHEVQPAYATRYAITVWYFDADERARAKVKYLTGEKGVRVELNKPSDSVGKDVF

SMILES	IC50 [nM]
CC1(C)C(=O)C(C(=O)NCC(=O)O)=C(O)c2ccc(/C=C/c3ccccc3)cc21 [Example 108, (E)-2-(2-Hydroxy-1,1-dimethyl-4-oxo-7-styryl-1,4-dihydronaphthalene-3-carboxamido)acetic acid]	< 100
CC1(C)C(=O)C(C(=O)NCC(=O)O)=C(O)c2ccc(CCc3ccccc3)cc21 [Example 109, 2-(2-Hydroxy-1,1-dimethyl-4-oxo-7-phenethyl-1,4-dihydronaphthalene-3-carboxamido)acetic acid]	< 100
CC1(C)C(=O)C(C(=O)NCC(=O)O)=C(O)c2ccc(C#Cc3ccccc3)cc21 [Example 110, 2-(2-Hydroxy-1,1-dimethyl-4-oxo-7-(2-phenylethynyl)-1,4-dihydronaphthalene-3-carboxamido)acetic acid]	100 to 500
O=C(O)CNC(=O)C1=C(O)c2cccc(Cl)c2C2(CCOCC2)C1=O [Example 111, N-((8-Chloro-2-hydroxy-4-oxo-2′,3′,5′,6′-tetrahydro-4H-spiro[naphthalene-1,4′-pyran]-3-yl)carbonyl)glycine]	< 100
O=C(O)CNC(=O)C1=C(O)c2c(Cl)cccc2C2(CCOCC2)C1=O [Example 112, N-((5-Chloro-2-hydroxy-4-oxo-2′,3′,5′,6′-tetrahydro-4H-spiro[naphthalene-1,4′-pyran]-3-yl)carbonyl)glycine]	< 100
O=C(O)CNC(=O)C1=C(O)c2ccc(F)c(F)c2C2(CCOCC2)C1=O [Example 113, N-((7,8-Difluoro-2-hydroxy-4-oxo-2′,3′,5′,6′-tetrahydro-4H-spiro[naphthalene-1,4′-pyran]-3-yl)carbonyl)glycine]	< 100
O=C(O)CCC(=O)C1=C(O)c2cc(Cl)ccc2C2(CCOCC2)C1=O [Example 119, 4-(6-Chloro-2-hydroxy-4-oxo-2′,3′,5′,6′-tetrahydro-4H-spiro[naphthalene-1,4′-pyran]-3-yl)-4-oxobutanoic acid]	< 100
CC(CC(=O)O)C(=O)C1=C(O)c2cc(Cl)ccc2C2(CCOCC2)C1=O (stereo not drawn) [Example 121, 4-(6-Chloro-2-hydroxy-4-oxo-2′,3′,5′,6′-tetrahydro-4H-spiro[naphthalene-1,4′-pyran]-3-yl)-3-methyl-4-oxobutanoic acid]	1000 to 10000
CC1(C)C(=O)C(C(=O)CCC(=O)O)=C(O)c2ccc(F)c(F)c21 [Example 126, 4-(5,6-difluoro-1-hydroxy-4,4-dimethyl-3-oxo-3,4-dihydronaphthalen-2-yl)-4-oxobutanoic acid]	100 to 500

Second part, the compound after the results:

IC50 [nM]	SMILES
1000 to 10000	CCCCCCCCc1ccc2c(c1)C(C)(C)C(=O)C(C(=O)NCC(=O)O)=C2O [Example 115, 2-(2-hydroxy-1,1-dimethyl-7-octyl-4-oxo-1,4-dihydronaphthalene-3-carboxamido) acetic acid]
< 100	COCC#Cc1ccc2c(c1)C(C)(C)C(=O)C(C(=O)NCC(=O)O)=C2O [Example 116, 2-(2-hydroxy-7-(3-methoxyprop-1-ynyl)-1,1-dimethyl-4-oxo-1,4-dihydronaphthalene-3-carboxamido) acetic acid]
< 100	CC1(C)C(=O)C(C(=O)NCC(=O)O)=C(O)c2ccc(C#Cc3cccnc3)cc21 [Example 117, 2-(2-hydroxy-1,1-dimethyl-4-oxo-7-(2-(pyridin-3-yl)ethynyl)-1,4-dihydronaphthalene-3-carboxamido) acetic acid]
100 to 500	CC1(C)C(=O)C(C(=O)CCC(=O)O)=C(O)c2cc(Cl)c(Cl)cc21 [Example 118, 4-(6,7-Dichloro-3-hydroxy-4,4-dimethyl-1-oxo-1,4-dihydro-2-naphthalenyl)-4-oxobutanoic acid]
1000 to 10000	CC1(C#N)C(=O)C(C(=O)CCC(=O)O)=C(O)c2cc(Cl)ccc21 (stereo not drawn) [Example 123, 4-(7-chloro-4-cyano-3-hydroxy-4-methyl-1-oxo-1,4-dihydro-2-naphthalenyl)-4-oxobutanoic acid]
100 to 500	CC1(C)C(=O)C(C(=O)CCC(=O)O)=C(O)c2ccc(Cl)cc21 [Example 127, 4-(6-chloro-1-hydroxy-4,4-dimethyl-3-oxo-3,4-dihydronaphthalen-2-yl)-4-oxobutanoic acid]
